Measured values published in ChEMBL document CHEMBL5346971, “Discovery of the First Irreversible HDAC6 Isoform Selective Inhibitor with Potent Anti-Multiple Myeloma Activity” (J Med Chem, 2023).
Activity calls are given as the source filed them. No cut-off for these calls is given here.

Columns and labels:
[1] = Intrinsic clearance in mouse liver microsomes in presence of NADPH by LC-MS/MS analysis; type: ADME, Microsome; details: read-out: CLH
RPMI-8226 [2] = assay: Antitumor activity against human RPMI-8226 cells xenografted in NCG mouse assessed as tumor growth inhibition at 10 ug administered intratumorally every 2 days by vernier caliper analysis; type: functional; details: dose 10 µg; route it(Intratumoral)
Histone deacetylase 1 = Histone deacetylase 1 (Homo sapiens, UniProt Q13547); assay: Inhibition of C-terminal His/FLAG-tagged human full length recombinant HDAC1 (1 to 482 residues) expressed in Sf9 cells using Boc-Lys(acetyI)-AMC as substrate preincubated with enzyme for 1 hr followed by substrate addition and measured after 30 mins by fluorescence based analysis
Histone deacetylase 1, sequence (Q13547 whole entry, the tested form may be a part): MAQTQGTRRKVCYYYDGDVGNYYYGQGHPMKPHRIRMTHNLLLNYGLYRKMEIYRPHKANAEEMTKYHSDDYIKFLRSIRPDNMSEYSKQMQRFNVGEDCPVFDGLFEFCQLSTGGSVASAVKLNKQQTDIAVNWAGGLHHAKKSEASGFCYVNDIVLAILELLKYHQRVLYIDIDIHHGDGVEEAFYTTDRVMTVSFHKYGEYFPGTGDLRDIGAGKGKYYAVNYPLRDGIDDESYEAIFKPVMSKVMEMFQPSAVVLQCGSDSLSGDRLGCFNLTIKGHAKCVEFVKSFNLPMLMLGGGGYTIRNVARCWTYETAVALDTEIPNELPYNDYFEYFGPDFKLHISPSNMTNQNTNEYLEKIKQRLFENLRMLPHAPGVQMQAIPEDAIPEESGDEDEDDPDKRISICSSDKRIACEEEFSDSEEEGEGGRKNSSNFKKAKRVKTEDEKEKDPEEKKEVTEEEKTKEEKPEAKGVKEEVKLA

[3] = target: T1, Protein deacetylase HDAC6 (Homo sapiens) (UniProt Q9UBN7); assay: Irreversible inhibition of HDAC6 in human A549 cells assessed as acetyl alpha-tubulin level at 0.4 uM incubated for 5 hrs followed by drug wash-out and measured immediately after drug wash-out by western blot analysis relative to control; type: cell-based
T1 sequence (whole entry): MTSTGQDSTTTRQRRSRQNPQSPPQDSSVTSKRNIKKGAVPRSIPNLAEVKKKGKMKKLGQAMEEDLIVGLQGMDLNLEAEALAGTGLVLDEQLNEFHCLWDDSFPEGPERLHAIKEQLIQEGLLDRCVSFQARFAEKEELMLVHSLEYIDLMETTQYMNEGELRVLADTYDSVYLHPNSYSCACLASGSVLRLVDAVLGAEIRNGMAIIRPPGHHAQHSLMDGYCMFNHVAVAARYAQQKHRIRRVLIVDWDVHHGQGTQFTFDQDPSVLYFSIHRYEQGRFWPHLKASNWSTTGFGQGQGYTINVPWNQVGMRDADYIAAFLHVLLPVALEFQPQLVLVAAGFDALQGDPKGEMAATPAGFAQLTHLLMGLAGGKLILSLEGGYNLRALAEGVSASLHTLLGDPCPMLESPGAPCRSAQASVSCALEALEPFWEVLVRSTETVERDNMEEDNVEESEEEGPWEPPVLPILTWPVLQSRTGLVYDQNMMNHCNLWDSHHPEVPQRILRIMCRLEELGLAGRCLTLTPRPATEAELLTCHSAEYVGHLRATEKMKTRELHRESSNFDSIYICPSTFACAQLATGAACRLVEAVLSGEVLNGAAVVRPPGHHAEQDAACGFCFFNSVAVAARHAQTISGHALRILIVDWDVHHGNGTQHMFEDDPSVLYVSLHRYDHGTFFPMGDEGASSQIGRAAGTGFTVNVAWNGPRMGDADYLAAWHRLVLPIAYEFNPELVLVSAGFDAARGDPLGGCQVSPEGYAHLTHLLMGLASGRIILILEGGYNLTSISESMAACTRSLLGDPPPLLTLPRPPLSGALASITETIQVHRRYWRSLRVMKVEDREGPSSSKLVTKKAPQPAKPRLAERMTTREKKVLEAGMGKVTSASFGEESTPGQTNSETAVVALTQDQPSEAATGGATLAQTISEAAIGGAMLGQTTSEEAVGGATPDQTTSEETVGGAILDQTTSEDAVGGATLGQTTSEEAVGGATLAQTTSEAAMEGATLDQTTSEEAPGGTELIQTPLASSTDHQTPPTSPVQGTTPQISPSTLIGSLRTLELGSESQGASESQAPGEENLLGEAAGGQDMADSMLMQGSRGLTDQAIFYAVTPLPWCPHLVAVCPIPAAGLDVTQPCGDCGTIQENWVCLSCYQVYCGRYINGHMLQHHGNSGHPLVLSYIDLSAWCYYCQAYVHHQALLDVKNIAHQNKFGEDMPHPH

[4] = target: T2, Polyamine deacetylase HDAC10 (Homo sapiens, UniProt Q969S8); assay: Inhibition of N-terminal FLAG-tagged human recombinant HDAC10 (2 to 631 residues) expressed in baculovirus-infected Sf9 cells using Acetyl-Arg-His-Lys(acety1)-Lys-(acety1)-AMC as substrate peincubated with enzyme for 1 hr followed by substrate addition and measured after 30 mins by fluorescence based analysis
T2 sequence (Q969S8 whole entry): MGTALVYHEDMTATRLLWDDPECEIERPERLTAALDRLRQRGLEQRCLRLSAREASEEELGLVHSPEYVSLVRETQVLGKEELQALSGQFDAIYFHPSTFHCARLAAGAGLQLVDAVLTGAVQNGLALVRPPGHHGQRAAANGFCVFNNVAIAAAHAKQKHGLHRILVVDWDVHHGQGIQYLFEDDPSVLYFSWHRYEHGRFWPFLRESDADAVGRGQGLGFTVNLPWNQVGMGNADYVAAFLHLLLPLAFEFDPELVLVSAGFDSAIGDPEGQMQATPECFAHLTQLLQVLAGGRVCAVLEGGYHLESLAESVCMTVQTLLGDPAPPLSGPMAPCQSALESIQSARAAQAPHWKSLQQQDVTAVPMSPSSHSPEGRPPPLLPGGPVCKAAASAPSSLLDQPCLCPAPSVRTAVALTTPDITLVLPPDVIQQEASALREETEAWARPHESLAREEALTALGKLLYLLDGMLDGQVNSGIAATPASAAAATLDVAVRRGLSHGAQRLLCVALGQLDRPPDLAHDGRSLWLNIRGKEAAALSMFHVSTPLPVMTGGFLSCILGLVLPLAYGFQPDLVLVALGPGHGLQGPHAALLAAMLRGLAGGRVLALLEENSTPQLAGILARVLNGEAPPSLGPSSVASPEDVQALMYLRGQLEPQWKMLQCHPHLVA

[5] = target: Histone deacetylase 3/Nuclear receptor corepressor 2 (HDAC3/NCoR2) (Homo sapiens, UniProt O15379); assay: Inhibition of C-terminal His-tagged human HDAC3 (1 to 428 residues)/N-terminal GST-tagged human NCOR2 (395 to 489 residues) expressed in baculovirus-infected Sf9 cells using Boc-Lys(acetyI)-AMC as substrate preincubated with enzyme for 1 hr followed by substrate addition and measured after 30 mins by fluorescence based analysis
Histone deacetylase 3/Nuclear receptor corepressor 2 (HDAC3/NCoR2), sequence (O15379 whole entry, the tested form may be a part): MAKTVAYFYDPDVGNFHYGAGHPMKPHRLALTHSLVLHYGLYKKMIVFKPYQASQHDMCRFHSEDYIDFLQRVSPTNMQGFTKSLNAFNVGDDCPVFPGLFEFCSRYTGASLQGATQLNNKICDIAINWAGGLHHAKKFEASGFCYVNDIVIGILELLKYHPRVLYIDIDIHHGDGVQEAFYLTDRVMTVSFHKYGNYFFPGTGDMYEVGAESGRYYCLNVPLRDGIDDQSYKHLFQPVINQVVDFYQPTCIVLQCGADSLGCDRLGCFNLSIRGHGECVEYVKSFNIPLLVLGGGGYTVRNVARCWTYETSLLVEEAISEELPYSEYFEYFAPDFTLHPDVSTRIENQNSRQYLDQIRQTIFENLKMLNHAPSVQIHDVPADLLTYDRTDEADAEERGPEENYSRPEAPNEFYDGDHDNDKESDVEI
Histone deacetylase 3/Nuclear receptor corepressor 2 (HDAC3/NCoR2), sequence (Q9Y618 whole entry, further chain, the tested form may be a part): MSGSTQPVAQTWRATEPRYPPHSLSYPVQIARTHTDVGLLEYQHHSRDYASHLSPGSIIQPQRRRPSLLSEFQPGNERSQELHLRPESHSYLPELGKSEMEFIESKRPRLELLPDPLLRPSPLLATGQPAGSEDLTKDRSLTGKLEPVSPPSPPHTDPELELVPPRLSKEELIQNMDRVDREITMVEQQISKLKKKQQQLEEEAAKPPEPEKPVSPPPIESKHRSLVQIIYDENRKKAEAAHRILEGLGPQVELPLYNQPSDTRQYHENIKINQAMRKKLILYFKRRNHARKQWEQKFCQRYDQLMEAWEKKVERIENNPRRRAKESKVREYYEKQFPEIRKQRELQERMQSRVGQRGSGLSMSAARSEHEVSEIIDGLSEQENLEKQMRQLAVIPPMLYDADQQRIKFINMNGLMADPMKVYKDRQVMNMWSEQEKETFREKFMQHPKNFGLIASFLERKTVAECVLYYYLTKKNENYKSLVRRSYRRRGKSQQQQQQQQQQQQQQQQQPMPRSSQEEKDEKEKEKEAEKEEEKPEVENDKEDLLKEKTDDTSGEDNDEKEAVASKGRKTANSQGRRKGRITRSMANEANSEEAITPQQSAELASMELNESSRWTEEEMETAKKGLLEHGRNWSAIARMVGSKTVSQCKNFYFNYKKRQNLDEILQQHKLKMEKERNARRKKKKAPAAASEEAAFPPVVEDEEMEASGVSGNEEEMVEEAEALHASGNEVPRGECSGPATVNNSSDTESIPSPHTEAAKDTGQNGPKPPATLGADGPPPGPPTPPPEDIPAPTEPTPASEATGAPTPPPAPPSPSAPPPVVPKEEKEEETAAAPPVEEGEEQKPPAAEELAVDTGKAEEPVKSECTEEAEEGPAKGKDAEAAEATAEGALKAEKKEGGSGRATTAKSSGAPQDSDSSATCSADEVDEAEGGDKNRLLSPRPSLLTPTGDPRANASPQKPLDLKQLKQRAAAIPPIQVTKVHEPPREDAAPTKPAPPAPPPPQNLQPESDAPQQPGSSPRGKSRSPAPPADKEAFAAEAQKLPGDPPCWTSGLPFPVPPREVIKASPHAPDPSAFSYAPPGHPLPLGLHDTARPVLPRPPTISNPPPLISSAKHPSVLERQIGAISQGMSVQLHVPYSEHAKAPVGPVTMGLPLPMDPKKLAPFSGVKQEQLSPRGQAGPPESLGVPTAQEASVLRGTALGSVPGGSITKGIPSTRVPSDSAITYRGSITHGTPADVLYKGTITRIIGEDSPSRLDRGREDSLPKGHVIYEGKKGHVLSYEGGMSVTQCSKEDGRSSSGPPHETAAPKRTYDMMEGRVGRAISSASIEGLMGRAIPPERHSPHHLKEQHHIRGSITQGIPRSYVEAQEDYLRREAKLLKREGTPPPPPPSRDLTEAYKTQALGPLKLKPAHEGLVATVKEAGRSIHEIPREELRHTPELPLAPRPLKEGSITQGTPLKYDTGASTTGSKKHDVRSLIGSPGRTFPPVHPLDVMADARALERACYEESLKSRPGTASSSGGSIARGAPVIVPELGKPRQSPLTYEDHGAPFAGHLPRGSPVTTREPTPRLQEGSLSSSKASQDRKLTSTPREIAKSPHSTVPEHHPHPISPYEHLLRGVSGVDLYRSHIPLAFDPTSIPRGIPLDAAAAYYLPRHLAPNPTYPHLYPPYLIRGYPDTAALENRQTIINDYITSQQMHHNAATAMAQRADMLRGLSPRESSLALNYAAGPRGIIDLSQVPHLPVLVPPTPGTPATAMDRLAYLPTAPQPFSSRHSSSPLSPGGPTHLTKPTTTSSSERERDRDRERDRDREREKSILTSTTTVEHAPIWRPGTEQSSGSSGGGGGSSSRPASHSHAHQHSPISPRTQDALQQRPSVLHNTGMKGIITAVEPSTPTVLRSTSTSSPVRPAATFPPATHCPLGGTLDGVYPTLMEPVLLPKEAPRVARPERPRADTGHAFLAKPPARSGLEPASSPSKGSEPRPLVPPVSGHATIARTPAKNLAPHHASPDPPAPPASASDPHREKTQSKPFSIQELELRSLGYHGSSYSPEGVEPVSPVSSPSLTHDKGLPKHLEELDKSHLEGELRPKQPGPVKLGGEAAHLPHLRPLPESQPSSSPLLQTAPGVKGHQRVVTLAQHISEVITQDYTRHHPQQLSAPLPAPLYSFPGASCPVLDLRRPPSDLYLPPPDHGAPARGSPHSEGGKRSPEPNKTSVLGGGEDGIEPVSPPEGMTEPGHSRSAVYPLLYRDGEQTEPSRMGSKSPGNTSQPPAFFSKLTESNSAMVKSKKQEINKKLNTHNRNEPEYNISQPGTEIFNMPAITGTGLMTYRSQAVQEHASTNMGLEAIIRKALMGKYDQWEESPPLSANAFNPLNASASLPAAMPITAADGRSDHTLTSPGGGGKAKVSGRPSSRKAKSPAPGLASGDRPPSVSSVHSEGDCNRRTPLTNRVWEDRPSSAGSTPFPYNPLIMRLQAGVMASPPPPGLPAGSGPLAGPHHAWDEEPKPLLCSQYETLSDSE

[6] = Cytotoxicity against human L02 cells assessed as inhibition of cell proliferation incubated for 48 hrs by CCK8 assay; type: toxicity, cell-based
RPMI-8226 [7] = assay: Induction of apoptosis in human RPMI-8226 cells assessed as proportion of late apoptotic cells at 0.1 uM incubated for 24 hrs by AnnexinV-FITC/PI staining based flow cytometry (reference value: 4.18%); type: functional, cell-based
[8] = Toxicity in NCG mouse xenografted with human RPMI-8226 cells assessed as body weight loss at 10 ug administered intratumorally every 2 days; details: in vivo, other, 48 h, route it(Intratumoral), dose 10 µg

For `O=C(NO)c1ccc(COc2no[n+]([O-])c2S(=O)(=O)c2ccccc2)cc1`, the CLint scaled [1] was 2990 mL/min/kg, the TGI (RPMI-8226 [2]) was 48% and the IC50 (Histone deacetylase 1) was 4.8 µM. For the same compound, the fold change (FC) [3] was 5.2, the IC50 [4] was 1.8 µM and the IC50 [5] was 8.2 µM. For the same compound, the IC50 at 48 h [6] was 8.2 µM, the Activity (RPMI-8226 [7]) was “Active” and the Activity [8] was “Non-Toxic”.
